BindingDB's records for doi:10.1016/j.chembiol.2010.02.007 (Harvard Medical School, 2010)

How the values were obtained:
Assay in all cases: In Vitro Activity Kinase Assay
[1] = target: Vascular endothelial growth factor receptor 1 (Homo sapiens, UniProt P17948)
Procedure: (§1) In vitro kinase assay profiled against a panel of different kinase binding assay using Ambit kinomeScan technology. Biochemical IC50 values were determined using the Z'-lyte assays format from Invitrogen.

[2] = target: Fibroblast growth factor receptor 3 (Homo sapiens, UniProt P22607)
Procedure: as §1

[3] = target: Vascular endothelial growth factor receptor 3 (Homo sapiens, UniProt P35916)
Procedure: as §1

[4] = target: Fibroblast growth factor receptor 2 (Homo sapiens, UniProt P21802)
Procedure: as §1

[5] = target: Vascular endothelial growth factor receptor 2 (Homo sapiens, UniProt P35968)
Procedure: as §1

[6] = target: Platelet-derived growth factor receptor beta (Homo sapiens, UniProt P09619)
Procedure: as §1

[7] = target: Tyrosine-protein kinase Blk (Homo sapiens, UniProt P51451)
Procedure: as §1

[8] = target: Mitogen-activated protein kinase 7 (Homo sapiens, UniProt Q13164)
Procedure: as §1

[9] = target: Fibroblast growth factor receptor 1 (Homo sapiens, UniProt P11362)
Procedure: as §1

[10] = target: Mast/stem cell growth factor receptor Kit (Homo sapiens, UniProt P10721)
Procedure: as §1

[11] = target: Hepatocyte growth factor receptor (Homo sapiens, UniProt P08581)
Procedure: as §1

[12] = target: Fibroblast growth factor receptor 4 (Homo sapiens, UniProt P22455)
Procedure: as §1

Platelet-derived growth factor receptor beta, sequence (P09619 whole entry): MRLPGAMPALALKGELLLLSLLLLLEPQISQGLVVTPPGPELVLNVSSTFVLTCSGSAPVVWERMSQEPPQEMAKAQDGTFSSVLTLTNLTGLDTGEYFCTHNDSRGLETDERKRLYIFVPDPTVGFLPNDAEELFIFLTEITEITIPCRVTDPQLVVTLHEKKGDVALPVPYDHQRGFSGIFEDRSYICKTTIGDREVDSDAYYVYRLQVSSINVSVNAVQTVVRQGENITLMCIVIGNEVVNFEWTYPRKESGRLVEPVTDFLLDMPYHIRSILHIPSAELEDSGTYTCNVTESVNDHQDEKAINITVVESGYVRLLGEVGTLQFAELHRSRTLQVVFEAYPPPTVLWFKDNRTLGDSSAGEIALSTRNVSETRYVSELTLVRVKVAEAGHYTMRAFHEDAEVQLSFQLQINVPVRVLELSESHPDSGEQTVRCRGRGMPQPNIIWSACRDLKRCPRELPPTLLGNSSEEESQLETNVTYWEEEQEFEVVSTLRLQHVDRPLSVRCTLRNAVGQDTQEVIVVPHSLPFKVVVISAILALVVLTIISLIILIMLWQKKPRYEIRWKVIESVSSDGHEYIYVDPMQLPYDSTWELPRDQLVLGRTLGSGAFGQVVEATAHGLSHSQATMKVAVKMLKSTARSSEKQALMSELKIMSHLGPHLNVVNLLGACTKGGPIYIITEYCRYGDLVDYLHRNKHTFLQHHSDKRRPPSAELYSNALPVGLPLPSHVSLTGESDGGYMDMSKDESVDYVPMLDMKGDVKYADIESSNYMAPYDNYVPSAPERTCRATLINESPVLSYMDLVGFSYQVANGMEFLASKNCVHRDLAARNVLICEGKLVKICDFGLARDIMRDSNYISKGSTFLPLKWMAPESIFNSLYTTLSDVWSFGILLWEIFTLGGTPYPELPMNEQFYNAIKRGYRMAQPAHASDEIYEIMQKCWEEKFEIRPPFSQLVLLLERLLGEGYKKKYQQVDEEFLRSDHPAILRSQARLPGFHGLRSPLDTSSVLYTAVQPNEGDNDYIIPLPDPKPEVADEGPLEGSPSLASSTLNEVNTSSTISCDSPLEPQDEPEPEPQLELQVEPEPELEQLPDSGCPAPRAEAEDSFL
Mitogen-activated protein kinase 7, sequence (Q13164 whole entry): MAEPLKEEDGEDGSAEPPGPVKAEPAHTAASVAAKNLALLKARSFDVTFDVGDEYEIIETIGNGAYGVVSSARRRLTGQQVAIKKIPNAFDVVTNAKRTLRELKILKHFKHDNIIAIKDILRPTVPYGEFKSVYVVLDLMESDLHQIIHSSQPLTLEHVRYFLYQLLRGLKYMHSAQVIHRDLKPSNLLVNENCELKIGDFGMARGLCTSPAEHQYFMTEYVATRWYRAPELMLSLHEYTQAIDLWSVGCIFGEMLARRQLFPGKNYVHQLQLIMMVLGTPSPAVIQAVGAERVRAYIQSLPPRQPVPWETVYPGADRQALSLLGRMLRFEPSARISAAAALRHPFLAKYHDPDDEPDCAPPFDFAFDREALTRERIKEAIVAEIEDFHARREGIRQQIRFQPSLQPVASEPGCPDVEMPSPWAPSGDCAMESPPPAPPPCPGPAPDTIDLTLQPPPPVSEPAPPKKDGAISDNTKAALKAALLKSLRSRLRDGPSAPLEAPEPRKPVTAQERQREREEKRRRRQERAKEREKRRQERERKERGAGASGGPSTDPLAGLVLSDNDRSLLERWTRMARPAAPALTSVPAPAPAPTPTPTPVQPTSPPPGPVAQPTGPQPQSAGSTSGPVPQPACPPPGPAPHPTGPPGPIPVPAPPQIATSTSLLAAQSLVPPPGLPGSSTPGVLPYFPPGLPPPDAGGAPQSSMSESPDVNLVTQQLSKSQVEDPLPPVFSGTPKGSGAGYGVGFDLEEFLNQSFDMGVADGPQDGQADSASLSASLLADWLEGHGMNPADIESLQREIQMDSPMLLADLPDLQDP
Vascular endothelial growth factor receptor 3, sequence (P35916 whole entry): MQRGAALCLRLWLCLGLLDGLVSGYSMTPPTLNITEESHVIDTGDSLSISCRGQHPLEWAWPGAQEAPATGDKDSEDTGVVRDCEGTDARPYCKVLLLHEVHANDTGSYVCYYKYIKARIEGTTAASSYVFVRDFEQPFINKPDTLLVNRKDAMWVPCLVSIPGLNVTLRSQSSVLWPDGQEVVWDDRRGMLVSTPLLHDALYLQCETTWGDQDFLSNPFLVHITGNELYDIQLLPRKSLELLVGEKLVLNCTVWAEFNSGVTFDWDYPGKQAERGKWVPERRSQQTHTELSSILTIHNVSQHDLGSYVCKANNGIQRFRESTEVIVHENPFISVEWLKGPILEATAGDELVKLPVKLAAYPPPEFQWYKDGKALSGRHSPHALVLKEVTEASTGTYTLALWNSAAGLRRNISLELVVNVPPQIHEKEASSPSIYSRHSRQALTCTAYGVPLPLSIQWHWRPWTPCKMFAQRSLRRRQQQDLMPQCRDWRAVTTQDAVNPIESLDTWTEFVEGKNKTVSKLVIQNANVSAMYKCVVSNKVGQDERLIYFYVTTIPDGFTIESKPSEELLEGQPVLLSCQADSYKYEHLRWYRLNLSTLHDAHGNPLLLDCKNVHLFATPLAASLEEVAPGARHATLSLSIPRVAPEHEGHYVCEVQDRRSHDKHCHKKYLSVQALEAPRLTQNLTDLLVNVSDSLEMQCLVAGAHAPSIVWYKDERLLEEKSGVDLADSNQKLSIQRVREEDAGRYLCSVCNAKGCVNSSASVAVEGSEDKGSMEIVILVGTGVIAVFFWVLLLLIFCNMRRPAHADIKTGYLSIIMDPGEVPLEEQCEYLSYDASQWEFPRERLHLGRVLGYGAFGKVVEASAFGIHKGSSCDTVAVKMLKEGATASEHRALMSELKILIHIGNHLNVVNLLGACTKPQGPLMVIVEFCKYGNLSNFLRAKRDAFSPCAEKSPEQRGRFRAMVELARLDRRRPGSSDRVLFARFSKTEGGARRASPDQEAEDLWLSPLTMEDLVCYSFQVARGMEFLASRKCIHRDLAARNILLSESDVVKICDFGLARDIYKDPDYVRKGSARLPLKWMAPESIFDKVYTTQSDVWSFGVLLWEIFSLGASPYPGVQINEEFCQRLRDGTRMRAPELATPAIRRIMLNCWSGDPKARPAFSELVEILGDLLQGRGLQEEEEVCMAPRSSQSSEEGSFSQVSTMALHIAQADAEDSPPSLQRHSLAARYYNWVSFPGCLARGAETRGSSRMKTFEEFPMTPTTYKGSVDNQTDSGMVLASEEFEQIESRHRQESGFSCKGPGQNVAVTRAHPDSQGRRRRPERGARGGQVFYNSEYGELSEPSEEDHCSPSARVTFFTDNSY
Vascular endothelial growth factor receptor 1, sequence (P17948 whole entry): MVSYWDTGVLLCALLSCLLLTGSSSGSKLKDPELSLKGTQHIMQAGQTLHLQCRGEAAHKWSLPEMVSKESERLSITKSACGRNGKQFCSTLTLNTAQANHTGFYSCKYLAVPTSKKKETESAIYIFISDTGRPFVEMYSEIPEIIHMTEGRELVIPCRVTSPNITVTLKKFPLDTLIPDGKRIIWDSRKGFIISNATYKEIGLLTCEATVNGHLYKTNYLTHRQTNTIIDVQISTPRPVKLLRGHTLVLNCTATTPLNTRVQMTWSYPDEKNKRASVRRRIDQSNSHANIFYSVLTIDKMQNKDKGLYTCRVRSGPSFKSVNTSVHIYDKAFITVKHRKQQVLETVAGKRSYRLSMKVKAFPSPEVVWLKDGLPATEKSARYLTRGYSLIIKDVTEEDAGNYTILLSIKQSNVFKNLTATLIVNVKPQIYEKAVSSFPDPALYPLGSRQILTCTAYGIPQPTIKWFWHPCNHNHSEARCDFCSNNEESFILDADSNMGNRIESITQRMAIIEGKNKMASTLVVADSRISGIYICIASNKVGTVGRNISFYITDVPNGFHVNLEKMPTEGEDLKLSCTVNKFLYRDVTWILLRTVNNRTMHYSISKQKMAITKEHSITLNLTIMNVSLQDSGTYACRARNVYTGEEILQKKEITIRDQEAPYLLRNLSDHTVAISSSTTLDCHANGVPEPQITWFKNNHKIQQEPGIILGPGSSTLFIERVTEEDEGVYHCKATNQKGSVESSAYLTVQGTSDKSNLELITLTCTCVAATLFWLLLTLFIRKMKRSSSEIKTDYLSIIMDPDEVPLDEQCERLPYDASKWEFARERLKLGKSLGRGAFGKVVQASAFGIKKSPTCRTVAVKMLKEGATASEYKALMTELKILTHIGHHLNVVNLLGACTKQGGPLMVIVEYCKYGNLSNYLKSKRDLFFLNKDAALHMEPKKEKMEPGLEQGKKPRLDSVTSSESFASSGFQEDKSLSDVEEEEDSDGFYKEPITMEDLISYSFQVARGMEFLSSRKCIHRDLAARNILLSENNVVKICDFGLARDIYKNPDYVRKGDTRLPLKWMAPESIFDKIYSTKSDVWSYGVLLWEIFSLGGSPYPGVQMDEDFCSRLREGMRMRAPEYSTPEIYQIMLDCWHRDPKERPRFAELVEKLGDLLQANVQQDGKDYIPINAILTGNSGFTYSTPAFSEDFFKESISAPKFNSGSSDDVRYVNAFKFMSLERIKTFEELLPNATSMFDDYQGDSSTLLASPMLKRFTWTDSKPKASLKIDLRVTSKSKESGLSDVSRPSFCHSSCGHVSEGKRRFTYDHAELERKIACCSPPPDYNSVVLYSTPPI
Tyrosine-protein kinase Blk, sequence (P51451 whole entry): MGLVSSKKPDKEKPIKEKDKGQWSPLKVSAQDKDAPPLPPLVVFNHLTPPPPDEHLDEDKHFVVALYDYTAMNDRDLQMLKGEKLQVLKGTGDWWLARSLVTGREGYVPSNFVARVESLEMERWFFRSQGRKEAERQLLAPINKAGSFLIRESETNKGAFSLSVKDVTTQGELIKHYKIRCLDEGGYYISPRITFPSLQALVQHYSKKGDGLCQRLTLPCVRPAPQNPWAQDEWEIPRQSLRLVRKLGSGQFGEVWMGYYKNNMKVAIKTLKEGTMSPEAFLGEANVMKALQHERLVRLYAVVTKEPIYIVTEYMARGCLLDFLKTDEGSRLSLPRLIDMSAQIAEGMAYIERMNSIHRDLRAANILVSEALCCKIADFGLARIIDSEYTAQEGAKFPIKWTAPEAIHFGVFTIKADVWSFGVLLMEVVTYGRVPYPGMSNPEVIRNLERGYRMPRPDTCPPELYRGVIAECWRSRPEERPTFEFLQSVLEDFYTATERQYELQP

- Kd [1]: 49 nM
- Kd [2]: 5.4 nM
- Kd [3]: 340 nM
- Kd [4]: 5.6 nM
- Kd [5]: 470 nM
- Kd [6]: 480 nM
- Kd [7]: 2300 nM
- Kd [8]: 130 nM
- Kd [9]: 3.1 nM
- Kd [10]: 250 nM
- Kd [11]: 1400 nM
- Kd [12]: 280 nM
Compound: CCNCCCCNc1ncc2c(n1)N(Cc1cccc(NC(=O)CC)c1)C(=O)N(c1c(Cl)c(OC)cc(OC)c1Cl)C2 [FRIN-1]
